The source of these data is EP3031808B1, “SALT OF IDELALISIB” (ratiopharm GmbH, priority 2014, dated 2016).

Data set [1] in a line: solubilities of salts of idelalisib in buffers and selected media.
For data set [2] the following is noted: cited from earlier work.
Where [3] appears, read: water demin. (pH dep.), 15 min.
[4] abbreviates: water demin. (pH dep.), 60 min.

Like-named read-outs stand apart in the source and are kept apart here.

For `CC[C@H](Nc1ncnc2[nH]cnc12)c1nc2cccc(F)c2c(=O)n1-c1ccccc1` [Base, 5-fluoro-3-phenyl-2-[(1S)-1-(9H-purin-6-ylamino)propyl]quinazolin-4(3H)-one], the solubilities was found to be 0.947 in data set [1] (0,01m HCl pH ∼2,2, 15 min.); 1.051 in data set [1] (0,01m HCl pH ∼2,2, 60 min.); 0.092 in data set [1] (20mM NaOAc pH 4.5, 15 min.); 0.100 in data set [1] (20mM NaOAc pH 4.5, 60 min.); 0.086 in data set [1] (50mM KH2PO4 pH 6.8, 15 min.); 0.088 in data set [1] (50mM KH2PO4 pH 6.8, 60 min.). Moreover, the solubilities in data set [1] (0.1 % TPGS (FaSSIF), 15 min.) is 0.141; in data set [1] (0.1 % TPGS (FaSSIF), 60 min.), 0.107; in data set [1] (2.0% TPGS (FeSSIF), 15 min.), 1.056; in data set [1] (2.0% TPGS (FeSSIF), 60 min.) it was 1.172; in data set [1] (setting [3]) it was 0.098; in data set [1] (setting [4]), 0.081. The solubility in water entry in data set [2] (water at pH 1.2) is on record as “soluble”; in data set [2] (water at pH 7) it was “practically insoluble”.

On to Maleate, for which the solubilities in data set [1] (0,01m HCl pH ∼2,2, 15 min.) is given as 2.445; in data set [1] (0,01m HCl pH ∼2,2, 60 min.), 2.655; in data set [1] (20mM NaOAc pH 4.5, 15 min.) it was 0.411; in data set [1] (20mM NaOAc pH 4.5, 60 min.), 0.475; in data set [1] (50mM KH2PO4 pH 6.8, 15 min.), 0.355; in data set [1] (50mM KH2PO4 pH 6.8, 60 min.), 0.393. Besides, the solubilities was found to be 0.662 in data set [1] (0.1 % TPGS (FaSSIF), 15 min.); 1.121 in data set [1] (0.1 % TPGS (FaSSIF), 60 min.); 6.798 in data set [1] (2.0% TPGS (FeSSIF), 15 min.); 6.984 in data set [1] (2.0% TPGS (FeSSIF), 60 min.); 1.934 in data set [1] (setting [3]); 2.095 in data set [1] (setting [4]). In data set [1] (general statement), the “solubility compared to the free base of idelalisib” value was “increased”.
